The species entered for one test is Homo sapiens. In words: tissue or blood. The following applies: Plasma. Type of test: functional, organism-based.
In a further test the target is Histamine H1 receptor (Rattus norvegicus, UniProt P31390). Briefly: Binding affinity against Histamine H1 receptor using receptor binding assay in rat brain membranes. The class given is cell membranes.

24 compounds from ChEMBL document CHEMBL1130701, “Dual antagonists of platelet activating factor and histamine. 3. Synthesis, biological activity and conformational implications of substituted N-acyl-bis-arylcycloheptapiperazines” (Bioorg Med Chem Lett, 1998) can be followed below.

Histamine H1 receptor, sequence (P31390 whole entry): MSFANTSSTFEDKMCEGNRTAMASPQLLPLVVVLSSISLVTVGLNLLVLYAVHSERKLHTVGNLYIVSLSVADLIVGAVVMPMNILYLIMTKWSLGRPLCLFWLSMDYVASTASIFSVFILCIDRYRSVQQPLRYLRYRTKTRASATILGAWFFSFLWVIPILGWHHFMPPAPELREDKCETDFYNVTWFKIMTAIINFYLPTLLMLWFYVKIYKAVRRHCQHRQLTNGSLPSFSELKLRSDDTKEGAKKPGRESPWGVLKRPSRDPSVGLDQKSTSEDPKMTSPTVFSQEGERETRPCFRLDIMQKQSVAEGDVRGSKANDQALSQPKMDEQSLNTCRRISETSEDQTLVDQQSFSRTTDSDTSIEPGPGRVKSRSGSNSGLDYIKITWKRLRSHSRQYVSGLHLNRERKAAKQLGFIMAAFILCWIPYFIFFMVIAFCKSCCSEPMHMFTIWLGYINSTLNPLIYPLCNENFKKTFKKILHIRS

Compound `CCCC(=O)N1CCN(C2c3ccc(Cl)cc3CCc3cccnc32)CC1` (stereo not given) returned an IC50 in the test listed under Homo sapiens of 15 µM. The compound also came in with an inhibition constant (Ki) on Histamine H1 receptor of 3.6 µM.

Compound `CCC(=O)N1CCC(=C2c3ccc(Cl)cc3CCc3cccnc32)CC1` showed an IC50 in the test listed under Homo sapiens of 2.4 µM. The same measure, in the same setting: next, `CC(=O)N1CCN(C2c3ccc(Cl)cc3C=Cc3cccnc32)CC1` (stereo not given): 0.66 µM. For the compound `Clc1ccc2c(c1)CCc1cccnc1C2N1CCNCC1` (stereo not given), the IC50 in the test filed under Homo sapiens was not below 23 µM. The affinity on Histamine H1 receptor, expressed as Ki, was 0.0064 µM. The matching figures for `CC(=O)N1CCCN(C2c3ccc(Cl)cc3CCc3cccnc32)CC1` (stereo not given): 13 µM and 0.97 µM. The matching figures for `CN1CCN(C2c3ccc(Cl)cc3CCc3cccnc32)CC1` (stereo not given): 28 µM and 0.0065 µM. In the same order, the values of `CC(=O)N1CCN([C@@H]2c3ccc(Cl)cc3CCc3cccnc32)CC1` are 1.3 µM and 3.6 µM. As for `CC(=O)N1CCN([C@H]2c3ccc(Cl)cc3CCc3cccnc32)CC1`, the IC50 in the test listed under Homo sapiens was determined as 0.21 µM. Besides, the Ki at Histamine H1 receptor was more than 10 µM. The compound `O=CN1CCN(C2c3ccc(Cl)cc3CCc3cccnc32)CC1` (stereo not given) displayed an IC50 in the test filed under Homo sapiens of 12 µM. This compound had a Ki at Histamine H1 receptor of 0.29 µM.

`CC(=O)N1[C@H](C)CN(C2c3ccc(Cl)cc3CCc3cccnc32)C[C@@H]1C` (stereo not given in full) displayed an IC50 in the test filed under Homo sapiens of more than 50 µM. Also, the Ki at Histamine H1 receptor was not below 7.1 µM. For `CCOC(=O)N1CCN(C2c3ccc(Cl)cc3CCc3cccnc32)CC1` (stereo not given), in the test filed under Homo sapiens, the IC50 is more than 50 µM. This compound had a Ki on Histamine H1 receptor not below 3.8 µM. In the test filed under Homo sapiens, `O=CN1CCC(=C2c3ccc(Cl)cc3CCc3cccnc32)CC1` displayed an IC50 of 14 µM. For the compound `CCC(=O)N1CCN(C2c3ccc(Cl)cc3CCc3cccnc32)CC1` (stereo not given), the IC50 in the test listed under Homo sapiens was found to be 1.4 µM. Further, the inhibition constant (Ki) on Histamine H1 receptor is 2.5 µM. The matching figures for `CC(=O)N1CCN(C2c3ccc(Cl)cc3CCc3cccnc32)CC1` (stereo not given): 0.4 µM and 5.4 µM. In the same order, the values of `O=C1CCC2CN(C3c4ccc(Cl)cc4CCc4cccnc43)CCN12` (stereo not given) are 1.8 µM and 3.6 µM. The matching figures for `CC(=O)N1CCN(C2c3ccccc3CCc3ccccc32)CC1`: 26 µM and 3.7 µM. `CCCC(=O)N1CCC(=C2c3ccc(Cl)cc3CCc3cccnc32)CC1` registered an IC50 in the test filed under Homo sapiens of 33 µM. `CC(=O)N1CCC(=C2c3ccc(Cl)cc3C=Cc3cccnc32)CC1`: the concentration for half-maximal inhibition (IC50) in the test listed under Homo sapiens was found to be 0.42 µM. As to `CN1CCN(C2c3ccc(Cl)cc3CCc3cccnc32)CC1=O` (stereo not given), in the test listed under Homo sapiens, the IC50 is more than 50 µM. The compound also displayed a Ki at Histamine H1 receptor of 0.049 µM. The compound `CC(=O)N1CCN(C2c3ccc(Cl)cc3CCc3cccnc32)C[C@@H]1C` (stereo not given in full) returned an IC50 in the test filed under Homo sapiens of 14 µM. For the same compound, the Ki on Histamine H1 receptor was not below 5 µM. `CC(=O)N1CCC(=C2c3ccccc3CCc3ccccc32)CC1` returned an IC50 in the test filed under Homo sapiens of 41 µM. `O=C1CN(C2c3ccc(Cl)cc3CCc3cccnc32)CCN1` (stereo not given) had a concentration for half-maximal inhibition (IC50) in the test filed under Homo sapiens of more than 50 µM. The same compound gave a Ki on Histamine H1 receptor of 0.14 µM. The compound `CN1CCC(=C2c3ccc(Cl)cc3CCc3cccnc32)CC1` had an IC50 in the test filed under Homo sapiens not below 50 µM. On the same count and under the same terms, next, `CN(C)CCC(c1ccc(Cl)cc1)c1ccccn1` (stereo not given) [CHLORPHENIRAMINE]: more than 50 µM.

The IC50 is the concentration that inhibits the measured activity by half. Lower therefore signals inhibition by little substance. One may read the Ki as a dissociation constant, usually derived from enzyme kinetics or from competition with a known ligand. Low readings indicate higher affinity, high ones lower affinity.
